Read-outs that look alike come from different tables or passages of the source.
What was measured:
[1] = tested on: patients with severe pulmonary arterial hypertension; test: Example 2 trial: 6-minute walk test (6MWD); type: in vivo, human; conditions: for 6MWD change vs. baseline, mean (SD): study end, patients with both baseline and end of study assessment
Source text: Secondary objectives included changes in hemodynamic variables, and in FC.
(§1) Patients (≧18 years) in FC II-IV with idiopathic or familial PAH, or PAH associated with systemic sclerosis or congenital heart disease (WHO group I) and PVR>300 dynes·sec·cm^−5 were eligible. Patients were on stable PAH medication(s) for >3 months before enrolment. Females of child-bearing potential used double-barrier contraception.
(§2) The primary efficacy outcome was the between-group difference in the 6MW distance (6MWD) at baseline and at 6 months. Complete hemodynamic parameters were assessed with standard techniques. FC was classified according to the WHO modification of the NYHA criteria for pulmonary hypertension.
(§3) Analyses were conducted within the intention-to-treat (ITT) population, which consisted of all patients who received at least one dose of study medication. Dropouts were excluded from the analysis The primary efficacy analysis (6MWD) was performed using analysis of covariance (ANCOVA) with baseline value as a covariate. ANCOVAs were also used to assess between-group differences in pulmonary hemodynamics and blood gases. Missing data were not imputed so only subjects with assessment both at baseline and post-treatment were included in the ANCOVA analysis. FC was compared using Fisher's test.

[2] = tested on: patients with severe pulmonary arterial hypertension; test: Example 2 trial: pulmonary hemodynamics; type: in vivo, human
Experimental: as §1, §2, §3

[3] = tested on: patients with severe pulmonary arterial hypertension; test: Example 2 trial: blood gases (oxygen saturation); type: in vivo, human
Experimental: as §3

[4] = tested on: patients with severe pulmonary arterial hypertension
[5] = end of study, with imatinib treatment

In the case of `Cc1ccc(NC(=O)c2ccc(CN3CCN(C)CC3)cc2)cc1Nc1nccc(-c2cccnc2)n1` [imatinib], the “6MWD treatment difference imatinib vs. placebo” value ([1]; ANCOVA of ITT population, p=0.21) was 21.7 m, the “6MWD change vs. baseline, mean (SD)” value [1] was “+22±63 m” and the “6MWD change vs. baseline, mean (SD)” value ([1]; listed as Imatinib) was 22 (63) m. The “PAPm, imatinib vs. placebo” value ([2]; 6 months, result in words) was “no significant difference”, the “Cardiac output (CO) mean treatment difference vs. placebo” value ([2]; 6 months, 95% CI 0.10, 1.26, p=0.02) was 0.68 L/min and the “PVR mean treatment difference vs. placebo” value ([2]; 6 months, 95% CI −383.7, −77.8, p=0.004) was −230.7 dynes. The “Change between baseline and study end for PAPm, CO, PVR or 6MWD” value ([2]; post-hoc subgroup, baseline PVR<1,000 dynes·sec·cm^−5) was “no major differences”, the “Change between baseline and study end for PAPm, CO, PVR and 6MWD compared with placebo” value ([2]; post-hoc subgroup, baseline PVR≧1,000 dynes·sec·cm^−5) was “substantial improvement” and the “Systemic arterial oxygen saturation, mean treatment difference vs. placebo” value ([3]; 95% CI 0.5, 4.3) was 2.4%. The “Mixed venous oxygen saturation, mean treatment difference vs. placebo” value ([3]; 95% CI 2.1, 11.9) was 7.0%, the “Mixed venous oxygen saturation” value ([3]; baseline) was 58±10% and the “Systemic arterial oxygen saturation” value ([3]; baseline) was 88±9%. The “Mixed venous oxygen saturation” value [3, 5] was 65±7%, the “Systemic arterial oxygen saturation” value [3, 5] was 93±5% and the “Haemoglobin level (±SD)” value ([4]; after the fall with imatinib) was 128 ± 16 g/L. The “Haemoglobin level (±SD)” value ([4]; before the fall (start value)) was 151 ± 14 g/L, the Deaths in group ([4]; during 6 month study) was “three” and the “AE headache, number of patients” value ([4]; imatinib group) was 10. The “AE headache, percent of patients” value ([4]; imatinib group) was 35.7%, the “AE nausea, percent of patients” value ([4]; imatinib group) was 50% and the “AE peripheral edema, number of patients” value ([4]; imatinib group) was 7. For the same molecule, the “AE peripheral edema, percent of patients” value ([4]; imatinib group) was 25.0%, the “Patients reporting AEs of mild intensity, number” value ([4]; imatinib group) was 21 and the “Patients reporting AEs of mild intensity, percent” value ([4]; imatinib group) was 75%. The “Patients reporting AEs of moderate intensity, number” value ([4]; imatinib group) was 20, the “Patients reporting AEs of moderate intensity, percent” value ([4]; imatinib group) was 71% and the “Patients reporting AEs of severe intensity, number” value ([4]; imatinib group) was 9. The “Patients reporting AEs of severe intensity, percent” value ([4]; imatinib group) was 32%, the “Patients with rupture of the pulmonary artery (fatal)” value ([4]; imatinib group) was “One” and the “Serious AEs (SAEs), number of recipients” value ([4]; imatinib group) was 11. For the same molecule, the “Serious AEs (SAEs), percent of recipients” value ([4]; imatinib group) was 39%, the “AE nausea, number of patients” value ([4]; imatinib group N = 28) was 14 and the “Safety and tolerability in patients with PAH” value ([4]; over 6 months, result in words) was “safe and well tolerated”. For the same molecule, the “Changes over time in other laboratory variables (white blood cell count, platelet count, albumin, liver enzymes, creatinine, electrolytes etc.)” value ([4]; result in words) was “no relevant changes”.
